Experimental data: ChEMBL document CHEMBL1201862, “PubChem BioAssay data set” (2004)
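These data come from cells grown in 96-well plates and exposed to compound for 48 hours at five concentrations. The concentration for 50% growth inhibition is given as GI50.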 Active and inactive are the calls of the source. Rule as the data show it: active = GI50 up to about 1.1 µM and inactive = higher.

Columns and labels:
Assay in all cases: DTP human tumour cell line panel, 48 h
NCI-H460 = system: NCI-H460
SK-MEL-28 = system: SK-MEL-28
SF-539 = system: SF-539
BT-549 = system: BT-549
HCC 2998 = system: HCC 2998
EKVX = system: EKVX
ACHN = system: ACHN
HT-29 = system: HT-29
M14 = system: M14
SNB-19 = system: SNB-19
HL-60 = system: HL-60
NCI-H522 = system: NCI-H522
KM12 = system: KM12
HOP-92 = system: HOP-92
SK-OV-3 = system: SK-OV-3
OVCAR-8 = system: OVCAR-8
OVCAR-4 = system: OVCAR-4
PC-3 = system: PC-3
MCF7 = system: MCF7
UACC-62 = system: UACC-62
NCI-H226 = system: NCI-H226
SN12C = system: SN12C
A498 = system: A498
MDA-MB-435 = system: MDA-MB-435
TK-10 = system: TK-10
U-251 = system: U-251
SW-620 = system: SW-620
K562 = system: K562
UO-31 = system: UO-31
SK-MEL-5 = system: SK-MEL-5
786-0 = system: 786-0
MOLT-4 = system: MOLT-4
SNB-75 = system: SNB-75
COLO 205 = system: COLO 205
NCI/ADR-RES = system: NCI/ADR-RES
A549 = system: A549
LOX IMVI = system: LOX IMVI
MDA-MB-231 = system: MDA-MB-231
HCT-15 = system: HCT-15
SR = system: SR
UACC-257 = system: UACC-257
Hs-578T = system: Hs-578T
OVCAR-5 = system: OVCAR-5
SF-268 = system: SF-268
HCT-116 = system: HCT-116
SK-MEL-2 = system: SK-MEL-2
IGROV-1 = system: IGROV-1
CCRF-CEM = system: CCRF-CEM
T47D = system: T47D
DU-145 = system: DU-145
CAKI-1 = system: CAKI-1
MDA-N = system: MDA-N
NCI-H23 = system: NCI-H23
Malme-3M = system: Malme-3M

What does the source list for `C=C(C)C1CC2(C)C(C)CC(OC(=O)/C(C)=C\C)CC2C(OC(=O)/C(C)=C\C)C1O` (centres undefined)?
GI50 (NCI-H460): 45.1 µM (inactive); GI50 (SK-MEL-28): > 100 µM (inactive); GI50 (SF-539): > 100 µM (inactive); GI50 (BT-549): 62.1 µM (inactive); GI50 (HCC 2998): > 100 µM (inactive); GI50 (EKVX): 67 µM (inactive); GI50 (ACHN): 32.9 µM (inactive); GI50 (HT-29): 35.8 µM (inactive); GI50 (M14): > 100 µM (inactive); GI50 (SNB-19): 25.1 µM (inactive); GI50 (HL-60): 21.4 µM (inactive); GI50 (NCI-H522): 32.7 µM (inactive); GI50 (KM12): 38.6 µM (inactive); GI50 (HOP-92): 51.2 µM (inactive); GI50 (SK-OV-3): > 100 µM (inactive); GI50 (OVCAR-8): > 100 µM (inactive); GI50 (OVCAR-4): > 100 µM (inactive); GI50 (PC-3): 46.6 µM (inactive); GI50 (MCF7): 41.2 µM (inactive); GI50 (UACC-62): 84.5 µM (inactive); GI50 (NCI-H226): > 100 µM (inactive); GI50 (SN12C): 62.2 µM (inactive); GI50 (A498): > 100 µM (inactive); GI50 (MDA-MB-435): 55.3 µM (inactive); GI50 (TK-10): > 100 µM (inactive); GI50 (U-251): 75.5 µM (inactive); GI50 (SW-620): 61 µM (inactive); GI50 (K562): > 10 µM (inactive); GI50 (UO-31): 39.8 µM (inactive); GI50 (SK-MEL-5): 15.6 µM (inactive); GI50 (786-0): > 100 µM (inactive); GI50 (MOLT-4): 25.1 µM (inactive); GI50 (SNB-75): 22 µM (inactive); GI50 (COLO 205): 22.1 µM (inactive); GI50 (NCI/ADR-RES): > 100 µM (inactive); GI50 (A549): 39.5 µM (inactive); GI50 (LOX IMVI): 38.6 µM (inactive); GI50 (MDA-MB-231): > 100 µM (inactive); GI50 (HCT-15): 42 µM; GI50 (SR): 19.8 µM (inactive); GI50 (UACC-257): 89.1 µM (inactive); GI50 (Hs-578T): 34.7 µM (inactive); GI50 (OVCAR-5): > 100 µM (inactive); GI50 (SF-268): 66.4 µM (inactive); GI50 (HCT-116): 56.1 µM (inactive); GI50 (SK-MEL-2): > 100 µM (inactive); GI50 (IGROV-1): 66.2 µM (inactive); GI50 (CCRF-CEM): 20.8 µM (inactive); GI50 (T47D): 43.2 µM (inactive); GI50 (DU-145): 66.8 µM (inactive); GI50 (CAKI-1): 80.7 µM (inactive); GI50 (MDA-N): 55.8 µM (inactive); GI50 (NCI-H23): 61.9 µM (inactive); GI50 (Malme-3M): > 100 µM (inactive)
